# In US20230390303A1, “CANCER TREATMENT BY COMBINATION OF EP4 ANTAGONIST AND IMMUNE CHECKPOINT INHIBITOR” (priority 2020, published 2023):
# Tests used:
# Assay type in all cases: in vivo, human
# [1] = tested on: radically unresectable advanced or recurrent colonic/rectal cancer; assay: Open-label, uncontrolled study: Compound A, Nivolumab and XELOX plus Bevacizumab therapy as primary treatment; settings: Compound A 20 mg or 40 mg orally once a day + Nivolumab 360 mg IV at 3-week intervals + XELOX plus Bevacizumab therapy; RECIST Guideline 1.1; 10 months after the first patient was registered
# Description: The purpose of this study is to examine the tolerability, safety, and efficacy of a combination of Compound A, Nivolumab, and XELOX plus Bevacizumab therapy as a primary treatment in patients with radically unresectable advanced or recurrent colonic/rectal cancer. This trial can evaluate the effect of the combination of Compound A, Nivolumab, and a XELOX plus Bevacizumab therapy.
# Patients with radically unresectable advanced or recurrent colonic/rectal cancer.
# At the time of registration, patients were selected, who had not been treated with a systemic antineoplastic agent for radically unresectable advanced or recurrent colonic/rectal cancer and who met all pre-determined patient selection criteria determined in view of the patient selection criteria in each trial performed so far for Compound A, Nivolumab and XELOX plus Bevacizumab therapy. When it became clear from the registration that the criteria were not satisfied before the first administration of the investigational new drug, the administration of the investigational new drug was not started and the study was discontinued. […]
# A principal investigator or a sub-investigator measured a tumor diameter of a target lesion according to RECIST Guideline 1.1 to determine the antitumor effect. […]
# [2] = tested on: advanced or recurrent non-small cell lung cancer refractory to a combination therapy including an anti-PD-1 antibody or an anti-PD-L1 antibody, and a platinum …; assay: Open-label, uncontrolled study: Compound A, Nivolumab, Docetaxel and Ramucirumab as secondary therapy; settings: Compound A 20 mg or 40 mg orally once a day + Nivolumab 360 mg IV at 3-week intervals + Docetaxel 60 mg/m^2 and Ramucirumab 10 mg/kg at 3-week intervals; RECIST Guideline 1.1; 8 months after the registration of the first patient
# Description: The purpose of this study is to examine the tolerability, safety, and efficacy of a combination of Compound A, Nivolumab, Docetaxel, and Ramucirumab as a secondary therapy in non-small cell lung cancer patients who had progressed or relapsed refractory to a combination therapy including an anti-PD-1 antibody or an anti-PD-L1 antibody and a platinum preparation. This trial can evaluate the effect of combination of Compound A, Nivolumab, Docetaxel, and Ramucirumab.
# Patients with stage IV or recurrent non-small cell lung cancer
# Compound A was orally administered once a day at a dose of 20 mg or 40 mg per administration, and the administration was continued until the predetermined criteria for discontinuation of administration related to Compound A were met. […]
# A principal investigator or a sub-investigator measured a tumor diameter of a target lesion according to RECIST Guideline 1.1 to determine the antitumor effect. […] Imaging diagnosis in the treatment phase was performed at 6-week intervals (±7 days) from Day 1 of the first cycle to Week 54, and thereafter at 12-week intervals (±7 days), and the tumor diameter was measured.
# The overall response and the best overall response were diagnostic imaging results evaluated based on the RECIST Guideline 1.1. […]
# [3] = tested on: curatively resectable locally advanced rectal cancer; assay: Open-label, uncontrolled study: Compound A or Compound A plus Nivolumab as preoperative adjuvant therapy after preoperative chemoradiotherapy; settings: Compound A 40 mg QD oral alone then with Nivolumab 240 mg Q2W IV (cohort 1) or in combination (cohort 2), after preoperative CRT; pCR = AJCC Tumor regression grade 0 (ypT0N0); 10 months after registration of the first patient
# Description: The purpose of this study was to examine the efficacy, pharmacokinetics and safety of Compound A administered alone and/or Compound A and Nivolumab administered in combination as a preoperative adjuvant therapy after a preoperative chemoradiotherapy (CRT) for curatively resectable locally advanced rectal cancer. The trial could evaluate the effect of Compound A and/or a combination of Compound A and Nivolumab as a preoperative adjuvant therapy.
# Curatively Resectable Locally Advanced Rectal Cancer
# As the preoperative CRT, the investigational new drug was administered to a patient who was treated and satisfied the following conditions. • 45 Gy/25 times of irradiation to the pelvic cavity and 5.4 Gy/3 times of boost irradiation to the primary lesion were performed. • the administration of Capecitabine was started at a dose of 1,650 mg/m^2 (825 mg/m^2 twice a day) per day. The starting dose was determined based on Method D of dosage and administration of Xeloda (registered trademark) tablet 300. • The oral administration of Capecitabine was performed in a period corresponding to 75% of 28 times which was the number of times of irradiation of radioactive ray in combination with the irradiation of radioactive ray (for example, in the case of 50.4 Gy/28 times of irradiation, oral administration for 21 days or 42 times or more as oral administration in the morning and evening). […]
# [4] = tested on: pancreatic cancer with distant metastasis; assay: Open-label, uncontrolled study: Compound A, Nivolumab and mFFX therapy or GnP therapy as primary treatment; settings: RECIST Guideline 1.1
# Description: This study aims to study the tolerability, safety and efficacy of a combination of Compound A as a primary treatment, Nivolumab and mFFX therapy or GP therapy in pancreatic cancer patients with distant metastases. The trial could evaluate the effect of the combination with Compound A, Nivolumab and mFFX therapy or Gnp therapy.
# Pancreatic cancer patients with distant metastases
# At the time of registration, patients who had not been treated with systemic antineoplastic agents for pancreatic cancer with distant metastases and who met all pre-determined patient selection criteria determined in view of the patient selection criteria in each trial performed so far for Compound A, Nivolumab and mFFX therapy or GnP therapy were selected.
# Compound A was orally administered once a day at a dose of 20 mg or 40 mg per administration, wherein the administration was continued until predetermined criteria for discontinuation of administration related to Compound A was met. Note that when Compound A, Nivolumab and the mFFX therapy or GnP therapy were administered on the same day, Compound A and Nivolumab were administered first, and after Compound A and Nivolumab were administered, followed by starting of the mFFX therapy or GnP therapy. […]
smiles,measurement,setting,value
"CC(C)NC(=O)c1ccc2c(c1)[C@]1(CCO2)C[C@H]1C(=O)Nc1cc(C#N)ccc1CCCC(=O)O [Compound A, 4-[4-cyano-2-({(2′R,4S)-6-[(propane-2-yl)carbamoyl]-2,3-dihydrospiro[1-benzopyran-4,1′-cyclopropane]-2′-carbonyl}amino)phenyl]butanoic acid]",cases determined to be PR,[1],2 cases
same,case determined to be PR,[2],one
same,cases determined to be pCR,[3],3 cases
same,cases judged to be PR,"[4]; Compound A 20 mg or 40 mg orally once a day + Nivolumab 480 mg IV at 4-week intervals + GnP therapy, 9 months after registration of the first patient",two
same,case determined to be PR,"[4]; Compound A 20 mg or 40 mg orally once a day + Nivolumab 480 mg IV at 4-week intervals + mFFX therapy, 9 months after the registration of the first patient",one
